Assays:
[1] = test system: recombinant human anti-SARS-CoV antibody 03-018; format: binding; set-up: Binding of antibody 03-018 to linear peptides of the N protein of SARS-CoV Urbani / Binding of antibody 03-018 to looped/cyclic peptides of the N protein of SARS-CoV Urbani: unit not given here
[2] = test system: control sera (pooled serum of ten healthy LUMC hospital workers; commercial negative donor pooled serum from the Dutch bloodbank); format: binding, human; set-up: Binding of Control serum LUMC to linear peptides / Binding of Control serum Blood-bank to linear peptides / Binding of Control serum LUMC to looped peptides / Binding of Control Serum Blood-Bank to Looped peptides / Binding of Control serum LUMC to linear peptides of the protein M of SARS-CoV Urbani / Binding of Control serum Blood-bank to linear peptides of the protein M of SARS-CoV Urbani / Binding of Control serum LUMC to looped peptides of the protein M of SARS-CoV Urbani / Binding of Control Serum Blood-Bank to Looped peptides of the protein M of SARS-CoV Urbani: unit not given here
[3] = test system: rabbit serum obtained by immunizing a rabbit with the SARS-CoV strain Frankfurt 1; format: binding; set-up: Binding of a rabbit serum to linear peptides / Binding of a rabbit serum to looped peptides / Rabbit serum linear peptides / Rabbit serum looped peptides / Binding of a rabbit serum to linear peptides of protein N of SARS-CoV Urbani (Rabbit serum linear peptides) / Binding of a rabbit serum to looped/cyclic peptides of protein N of SARS-CoV Urbani (Rabbit serum looped peptides): unit not given here
[4] = test system: antibodies in sera from SARS patients (sera 1a, 1b, 2, 6, 37, 62, London, SARS-yellow, SARS-green); format: binding, human; set-up: Binding of serum 6 to linear peptides of protein X1 of SARS-CoV Urbani / Binding of serum 37 to linear peptides of protein X1 of SARS-CoV Urbani / Binding of serum 6 to looped/cyclic peptide (PEPSCAN-ELISA) / Binding of serum 37 to looped/cyclic peptide (PEPSCAN-ELISA) / Binding of serum 37 to looped/cyclic peptides of protein X1 of SARS-CoV Urbani / Binding of serum 6 to linear peptides of protein X2 / Binding of serum 37 to linear peptides of protein X2 / Binding of serum 37 to looped/cyclic peptides of protein X2 of SARS-CoV Urbani / Binding of serum 6 to linear peptides of protein M of SARS-CoV Urbani / Binding of serum 37 to linear peptides of protein M of SARS-CoV Urbani / Binding of serum 6 to looped/cyclic peptides of protein M of SARS-CoV Urbani / Binding of serum 37 to looped/cyclic peptides of protein M of SARS-CoV Urbani / Binding of serum 6 to linear peptides of protein X3 of SARS-CoV Urbani / Binding of serum 37 to linear peptides of protein X3 of SARS-CoV Urbani / Binding of serum 37 to looped/cyclic peptides of protein X3 of SARS-CoV Urbani / Binding of serum 6 to linear peptides of protein X4 of SARS-CoV Urbani / Binding of serum 37 to linear peptides of protein X4 of SARS-CoV Urbani / Binding of serum 37 to looped/cyclic peptides of protein X4 of SARS-CoV Urbani / Binding of serum 6 to linear peptides of protein X5 of SARS-CoV Urbani / Binding of serum 37 to linear peptides of protein X5 of SARS-CoV Urbani / Binding of serum 37 to looped/cyclic peptides of protein X5 of SARS-CoV Urbani / Binding of serum 6 to linear peptides of protein N of SARS-CoV Urbani / Binding of serum 37 to linear peptides of protein N of SARS-CoV Urbani / Binding of serum 6 to linear peptide (PEPSCAN-ELISA) / Binding of serum 1a to looped/cyclic peptides of protein N of SARS-CoV Urbani / Binding of serum 1b to looped/cyclic peptides of protein N of SARS-CoV Urbani / Binding of serum 2 to looped/cyclic peptides of protein N of SARS-CoV Urbani / Binding of serum 6 to looped/cyclic peptides of protein N of SARS-CoV Urbani / Binding of serum 37 to looped/cyclic peptides of protein N of SARS-CoV Urbani / Binding of serum 62 to looped/cyclic peptides of protein N of SARS-CoV Urbani / Binding of serum London to looped/cyclic peptides of protein N of SARS-CoV Urbani / Binding of serum SARS-green to looped/cyclic peptides of protein N of SARS-CoV Urbani: unit not given here

Sequence	Binding of antibody 03-018 to linear peptides of the N protein of SARS-CoV Urbani [1]	Binding of antibody 03-018 to looped/cyclic peptides of the N protein of SARS-CoV Urbani [1]	Binding of a rabbit serum to linear peptides of protein N of SARS-CoV Urbani (Rabbit serum linear peptides) [3]	Binding of a rabbit serum to looped/cyclic peptides of protein N of SARS-CoV Urbani (Rabbit serum looped peptides) [3]	Binding of serum 1a to linear peptides of protein N of SARS-CoV Urbani [4]	Binding of serum 1a to looped/cyclic peptides of protein N of SARS-CoV Urbani [4]	Binding of serum 1b to linear peptides of protein N of SARS-CoV Urbani [4]	Binding of serum 1b to looped/cyclic peptides of protein N of SARS-CoV Urbani [4]	Binding of serum 2 to linear peptides of protein N of SARS-CoV Urbani [4]	Binding of serum 2 to looped/cyclic peptides of protein N of SARS-CoV Urbani [4]	Binding of serum 6 to linear peptides of protein N of SARS-CoV Urbani [4]	Binding of serum 6 to looped/cyclic peptides of protein N of SARS-CoV Urbani [4]	Binding of serum 37 to linear peptides of protein N of SARS-CoV Urbani [4]	Binding of serum 37 to looped/cyclic peptides of protein N of SARS-CoV Urbani [4]	Binding of serum 62 to linear peptides of protein N of SARS-CoV Urbani [4]	Binding of serum 62 to looped/cyclic peptides of protein N of SARS-CoV Urbani [4]	Binding of serum London to linear peptides of protein N of SARS-CoV Urbani [4]	Binding of serum London to looped/cyclic peptides of protein N of SARS-CoV Urbani [4]	Binding of serum SARS-green to looped/cyclic peptides of protein N of SARS-CoV Urbani [4]	Binding of serum SARS-yellow to looped/cyclic peptides of protein N of SARS-CoV Urbani [4]	other results
DYKHWPQIAQFAPSA	0.1	0.2	0.1	0.5	0.3	0.4	0.2	0.3	0.2	0.4	0.2	0.2	0.9	0.6	0.9	0.6	0.7	0.5	0.2	0.7	Control Serum Blood-Bank Looped peptides [2]: 0.6; Control serum Blood-bank linear peptides [2]: 0.9; Control serum LUMC linear peptides [2]: 0.8; Control serum LUMC looped peptides [2]: 0.7; Binding of serum SARS-green to linear peptides of protein N of SARS-CoV Urbani [4]: 0.4; Binding of serum SARS-yellow to linear peptides of protein N of SARS-CoV Urbani [4]: 0.8
SRSSSRSRGNSRNST	0.1	0.2	0.1	0.3	–	0.3	–	0.2	–	0.3	–	0.3	–	0.5	–	0.4	–	0.4	0.2	0.4	Binding of Control Serum Blood-Bank to Looped peptides [2]: 0.6; Binding of Control serum Blood-bank to linear peptides [2]: 0.7; Binding of Control serum LUMC to linear peptides [2]: 0.7; Binding of Control serum LUMC to looped peptides [2]: 0.6; Binding of serum 1a to linear peptide (PEPSCAN-ELISA) [4]: 0.2; Binding of serum 1b to linear peptide (PEPSCAN-ELISA) [4]: 0.1; Binding of serum 2 to linear peptide (PEPSCAN-ELISA) [4]: 0.2; Binding of serum 6 to linear peptide (PEPSCAN-ELISA) [4]: 0.2; Binding of serum 37 to linear peptide (PEPSCAN-ELISA) [4]: 0.4; Binding of serum 62 to linear peptide (PEPSCAN-ELISA) [4]: 0.6; Binding of serum London to linear peptide (PEPSCAN-ELISA) [4]: 0.4; Binding of serum SARS-green to linear peptide (PEPSCAN-ELISA) [4]: 0.2; Binding of serum SARS-yellow to linear peptide (PEPSCAN-ELISA) [4]: 0.7
NSGPDDQIGYYRRAT	0.1	0.2	0.1	0.5	0.2	0.5	0.1	0.3	0.1	0.5	0.2	0.3	0.7	1.0	0.6	0.7	0.4	0.5	0.5	0.6	Binding of Control Serum Blood-Bank to Looped peptides [2]: 0.7; Binding of Control serum Blood-bank to linear peptides [2]: 0.7; Binding of Control serum LUMC to linear peptides [2]: 0.7; Binding of Control serum LUMC to looped peptides [2]: 0.8; Binding of serum SARS-green to linear peptides of protein N of SARS-CoV Urbani [4]: 0.1; Binding of serum SARS-yellow to linear peptides of protein N of SARS-CoV Urbani [4]: 0.5
TASWFTALTQHGKEE	0.1	0.2	0.1	0.7	0.2	0.2	0.1	0.1	0.1	0.1	0.1	0.1	0.7	0.4	0.4	0.2	0.4	0.3	0.1	0.2	Binding of Control Serum Blood-Bank to Looped peptides [2]: 0.4; Binding of Control serum Blood-bank to linear peptides [2]: 0.6; Binding of Control serum LUMC to linear peptides [2]: 0.5; Binding of Control serum LUMC to looped peptides [2]: 0.3; Binding of serum SARS-green to linear peptides of protein N of SARS-CoV Urbani [4]: 0.3; Binding of serum SARS-yellow to linear peptides of protein N of SARS-CoV Urbani [4]: 0.5

Source: US20070128217A1 (priority 2003, published 2007)
